According to patent US4293694A, “Pyrido[3,2,1-jk]carbazols” (Otsuka Pharmaceutical Co., Ltd., priority 1979, dated 1981):
Values after ≈ are worked out from the molar mass of the structure shown. Where two headings read alike, the source gives them in different places.

Columns and labels:
[1] = system: Bacillus anthracis; assay: microbe, parasite or virus in culture; assay type: cell-based; details: read-out: Minimum Inhibitory Concentration (MIC)
[2] = system: Esherichia coli NIHJ; assay: Antimicrobial activity, serial dilution method on agar plate; assay type: cell-based; details: read-out: Minimum Inhibitory Concentration (MIC)
[3] = system: Pseudomonas aeruginosa ATCC 10145; assay: as above; assay type: cell-based; details: ATCC10145, read-out: Minimum Inhibitory Concentration (MIC)
[4] = system: Staphyrococcus aureus Newmann; assay: as above; assay type: cell-based; details: read-out: Minimum Inhibitory Concentration (MIC)
[5] = Acute toxicity; details: rat, in vivo, rats, dd strain, 18 to 22 g, fasted 12 hours
Description: Further, the acute toxicity of the compounds of the present invention having the formula (I) was determined by intravenous administration (i.v.) and oral administration (p.o.) in 5 to 6 groups of rats (dd strain; body weight, 18 to 22 g; 10 rats in each group) which had been fasted for 12 hours prior to the test.

[6] = system: Serratia marcescens ATCC 14756; assay: Antimicrobial activity, serial dilution method on agar plate; assay type: cell-based; details: ATCC14756, read-out: Minimum Inhibitory Concentration (MIC)
[7] = system: Klebsiella pneumoniae ST-101; assay: as above; assay type: cell-based; details: ST101, read-out: Minimum Inhibitory Concentration (MIC)
[8] = system: Bacillus cereus ATCC 11778; assay: as above; assay type: cell-based; details: ATCC11778, read-out: Minimum Inhibitory Concentration (MIC)
[9] = system: Proteus mirabilis 1287; assay: as above; assay type: cell-based; details: read-out: Minimum Inhibitory Concentration (MIC)
[10] = system: Enterbactor cloacae 2; assay: as above; assay type: cell-based; details: read-out: Minimum Inhibitory Concentration (MIC)
[11] = system: Sarcina lutea ATCC 9341; assay: as above; assay type: cell-based; details: Micrococcus luteus, ATCC9341, read-out: Minimum Inhibitory Concentration (MIC)
[12] = system: Staphyrococcus aureus FDA 209p; assay: as above; assay type: cell-based; details: read-out: Minimum Inhibitory Concentration (MIC)
[13] = system: Streptococcus faecalis IFO 12580; assay: as above; assay type: cell-based; details: Enterococcus faecalis, IFO12580, read-out: Minimum Inhibitory Concentration (MIC)
[14] = system: Bacillus subtilis ATCC 6633; assay: as above; assay type: cell-based; details: ATCC6633, read-out: Minimum Inhibitory Concentration (MIC)
[15] = system: Candida albicans KYU; assay: as above; assay type: cell-based; details: read-out: Minimum Inhibitory Concentration (MIC)
[16] = system: Micrococcus flavus ATCC 10240a; assay: as above; assay type: cell-based; details: ATCC10240A, read-out: Minimum Inhibitory Concentration (MIC)
[17] = system: Streptomyces viridans; assay: as above; assay type: cell-based; details: read-out: Minimum Inhibitory Concentration (MIC)
[18] = system: Enterbactor aerogenes IFO 12979; assay: as above; assay type: cell-based; details: read-out: Minimum Inhibitory Concentration (MIC)
[19] = system: Salmonella typhimurium kh; assay: as above; assay type: cell-based; details: Salmonella enterica, read-out: Minimum Inhibitory Concentration (MIC)
[20] = system: Esherichia coli NIHJ JC-2; assay: as above; assay type: cell-based; details: read-out: Minimum Inhibitory Concentration (MIC)
[21] = iv, read-out: LD50 (50% lethal dose), i.v.
[22] = po, read-out: LD50 (50% lethal dose), p.o.

| SMILES | MIC [1] [µg/mL] | MIC [2] [µg/mL] | MIC [3] [µg/mL] | MIC [4] [µg/mL] | LD50 [5, 21] [mg/kg] | LD50 [5, 22] [mg/kg] | MIC [6] [µg/mL] | MIC [7] [µg/mL] | MIC [8] [µg/mL] | MIC [9] [µg/mL] | MIC [10] [µg/mL] | MIC [11] [µg/mL] | MIC [12] [µg/mL] | MIC [13] [µg/mL] | MIC [14] [µg/mL] | MIC [15] [µg/mL] | MIC [16] [µg/mL] | MIC [17] [µg/mL] | MIC [18] [µg/mL] | MIC [19] [µg/mL] | also measured |
| --- | --- | --- | --- | --- | --- | --- | --- | --- | --- | --- | --- | --- | --- | --- | --- | --- | --- | --- | --- | --- | --- |
| O=C(NN=Cc1ccc([N+](=O)[O-])o1)c1cn2c3c(cc(F)cc3c1=O)C1CCCCC12 (stereo not drawn) [Compound 11] | 6.3 (≈ 14.8 µM) | 12.5 (≈ 29.5 µM) | > 100 | 12.5 (≈ 29.5 µM) | 180 | 3000 | 12.5 (≈ 29.5 µM) | 6.3 (≈ 14.8 µM) | 12.5 (≈ 29.5 µM) | 12.5 (≈ 29.5 µM) | 6.3 (≈ 14.8 µM) | 100 (≈ 236 µM) | 12.5 (≈ 29.5 µM) | > 100 | 3.2 (≈ 7.54 µM) | > 500 | 100 (≈ 236 µM) | > 100 | 6.3 (≈ 14.8 µM) | 12.5 (≈ 29.5 µM) | MIC [20]: 12.5 µg/mL (≈ 29.5 µM) |
| CC1CCN(CCOC(=O)c2cn3c4c(cc(F)cc4c2=O)C2CCCCC23)CC1 (stereo not drawn) [Compound 12] | 6.3 (≈ 15.3 µM) | 6.3 (≈ 15.3 µM) | > 100 | 6.3 (≈ 15.3 µM) | 130 | 2000 | 12.5 (≈ 30.3 µM) | 6.3 (≈ 15.3 µM) | 6.3 (≈ 15.3 µM) | 12.5 (≈ 30.3 µM) | 6.3 (≈ 15.3 µM) | 50 (≈ 121 µM) | 6.3 (≈ 15.3 µM) | 50 (≈ 121 µM) | 3.2 (≈ 7.76 µM) | > 500 | 50 (≈ 121 µM) | 100 (≈ 242 µM) | 6.3 (≈ 15.3 µM) | 12.5 (≈ 30.3 µM) | MIC [20]: 6.3 µg/mL (≈ 15.3 µM) |
